Measurements reported in US20150004631A1, “Plasmodium falciparum HLA class I restricted T-cell epitopes” (priority 2013, published 2015).
No end group written: not given here.

Experiments:
Format in all cases: cell-based, human
[1] = tested on: PBMC; assay: ELISpot IFN-γ assay, PBMC of Ad5-PfCA immunized volunteers (Gp1); conditions: for ELISpot activity of 15 mer peptide: v005, 1 month PBMC
Experimental: […] In these studies, IFN-γ activity was measured in response to exposure to the peptide pools. The assays were conducted essentially as described by Wang, et al., Proc. Natl. Acad. Sci. (U.S.A.), 98: 10817-22.
The stimulation of circulating antigen-specific T cell lymphocytes was evaluated by measurement of γ-IFN induction by ELISPOT. The ELISpot assay was conducted using thawed cryopreserved PBMC at 200K cells per well. Pre-challenge cells were taken at day 21 and day 22 post AdPfCA vaccination. Cells were suspended in […] complete medium and were stimulated with AMA1 peptides suspended in […] of complete medium. Peptide concentrations used in assays was 10 μg/ml of each peptide tested. Cultures were incubated for 36 h at 37° C., 5% CO2. Depending on availability of cells, each PBMC sample was assayed in duplicate, triplicate, or quadruplicate and the number of IFN-γ-secreting cells recognized as spot-forming cells (SFC) was enumerated using an automated ELISpot reader. In duplicate assays, all values were used in analysis. For triplicate or quadruplicate assays, outliers were rejected if any single value contributed more than 50% of the standard deviation of the triplicate (or quadruplicate) and if its value was three-fold greater or less than the average of the remaining two (or three) values. The mean spot forming cells (SFCs) obtained in negative control wells were subtracted from the value of each test well from the same sample. Negative counts generated by this background subtraction were converted to zero. The mean spot number of the test sample was then calculated and expressed as SFC/million PBMCs. Values obtained with pre-vaccinated samples were subtracted from the post-vaccination values.

[2] = tested on: CD4+ and CD8+ T cells; assay: Intracellular cytokine staining (ICS) of PBMC; conditions: for CD8^+ T cell IFN-γ response in ICS: HLA-matched volunteers, compared with parent peptide pool, FIG. 1 upper panel; for multifunctional CD8^+ T cell responses in ICS: v008 and v012, any two of IFN-γ, IL-2, TNF-α, FIG. 1 lower panel
Experimental: ICS was performed on PBMCs with costimulatory antibodies anti-CD28 and […] (obtained from BD Bioscience™, San Jose, Calif.). The peptides were used at the same concentrations as in ELISpot assays. Stimulants were added t cells and incubated at 37° C. with 5% CO2 for 2 hr. Golgi Plug™ (Brefeldin A) (BD Bioscience™, San Jose, Calif.) was added at a final concentration of 0.6 μL/mL and incubated at 37° C. with 5% CO2 overnight. Cells were stained with anti-CD3 (Alexa Fluor 700™), anti-CD4 (PerCP™), and anti-CD8 Pacific Blue™ (obtained from BD Bioscience™, San Jose, Calif.). and 1 μg/mL of live/dead fixable blue dye, incubated and washed. Cells were permeabilized with Cytofix/Cytoperm™ solution (obtained from BD Bioscience™, San Jose, Calif.), incubated and washed. Cells were stained intracellularly with anti-CD3 (Alexa Fluor 700™), anti-CD4 (PerCP™), and anti-CD8 Pacific Blue™, anti-IFN-γ FITC, anti-TNF PE, and anti-IL2 APC, incubated and washed. Cells were resuspended and the entire available sample was acquired by flowcytometry. The gating strategy included progressively measuring total cells; viable cells only; lymphocytes; T cells; CD4^+ CD8^+ populations; and a specific cell type expressing a specific cytokine. Histograms were used to determine the total production of IFN-γ, IL2, and TNF for the CD4^+ and CD8^+ populations. Boolean gates were used to determine cells producing combinations of cytokines.
In these studies, T cells containing IFN-γ, IL2, or TNFα, were gated into different subsets: IFN-γ+, IL2+, TNFα−; IFN-γ+, IL2−, TNFα+; IFN-γ+, IL2+, TNFα+; or IFN-γ+, IL2−, TNFα− T cells, and stimulated with the predicted epitopes and their parent peptide pool. The frequency of CD8^+ T cells producing total IFN-γ was far greater than CD4^+ T cell responses (FIG. 1, upper panel), which were extremely low.

[3] = tested on: CD4+ or CD8+ T cell depleted PBMC; assay: ELISpot IFN-γ assay after CD4+ or CD8+ T cell depletion of PBMC (Example 1); conditions: versus control depletion
Experimental: PBMC population depletion was conducted using anti-human CD4+ and anti-CD8^+ coated Dynabeads™ M-450 (Dynal, Great Neck, N.Y.) following the manufacturer's instructions. Mock depletion was done with Dynabeads coated with Sheep anti-mouse IgG. Flow cytometry confirmed that T-cell subset depletions were >99% in all experiments. The data is presented as the % effect (decrease) in activity after T cell subset depletion.
Finally, we wanted to confirm that indeed the responses to AMA14e were mediated by CD8^+ T cells. We compared activity to AMA14e in ELISpot depletion assays and ICS CD4^+ or CD8^+ T cell IFN-γ assays with Ap1-12 and recombinant AMA1 protein with v001 and v005 (FIG. 3). CD8^+ T cell depletion reduced ELISpot activity to AMA14e by about 85% in v001 and 95% in v005.

[4] = tested on: PBMC; assay: ELISpot IFN-γ assay, PBMC of AdPfCA / DNA prime-AdPfCA boost volunteers (Example 2); conditions: minimal epitope contained in Ap10; primarily CD8^+
Source text: To more clearly define immunological active regions of AMA1, PBMCs were isolated from AMA1 immunized volunteers. Two groups of volunteers, i.e., Gp 1 (from example 1, above) and Gp2, received 2×10^10 particle units of AdPfCA (NMRC-M3V-Ad-PfCA, NMRC+Multi-antigen Multi-stage, Malaria Vaccine+Adenovector+P. falciparum CSP & AMA1 antigens). The vaccine is a combination of two separate recombinant Ad5 constructs, one expressing full length CSP and the other expressing full length apical membrane antigen 1 (AMA1). AdPfCA expressed the AMA1 regions A1 through A12. Twenty-eight (28) days later, PBMC's were collected.
In a third group (termed preCh in FIG. 7 and FIG. 8), fifteen volunteers were primed with three doses (2 mg/dose) with one month between doses. Sixteen weeks after the final DNA priming dose, each volunteer received 2×10^10 particle units of AdPfCA. PBMC's were collected on day 22-23 after receiving AdPfCA. […]
The stimulation of circulating antigen-specific T cell lymphocytes was evaluated by measurement of γ-IFN induction by ELISPOT. […] Depending on availability of cells, each PBMC sample was assayed in duplicate, triplicate, or quadruplicate and the number of IFN-γ-secreting cells recognized as spot-forming cells (SFC) was enumerated using an automated ELISpot reader. […] The mean spot number of the test sample was then calculated and expressed as SFC/million PBMCs. […]

CEIFNVKPTCLINNS [Ap8-12]
IFN-γ ELISpot activity of individual 15 mer peptide ([1]; Volunteer 005): 127 SFC/10^6

CNKLVFELSASDQPK [Ap7-7]
IFN-γ ELISpot activity of individual 15 mer peptide ([1]; Volunteer 001): 77 SFC/10^6

EDIPHVNEFPAIDLF [Ap7-3]
IFN-γ ELISpot activity of individual 15 mer peptide ([1]; Volunteer 001): 139 SFC/10^6

EMRHFYKDNKYVKNL [Ap4-11]
IFN-γ ELISpot activity of individual 15 mer peptide ([1]; Volunteer 005): 65 SFC/10^6 | ELISpot activity of 15 mer peptide [1]: 65 sfc/m

ETQKCEIFNV (listed as Plasmodium falciparum) [Ep # 10]
CD8^+ T cell IFN-γ response in ICS [2]: very weak CD8^+ IFN-γ responses | multifunctional CD8^+ T cell responses in ICS [2]: did not appear to induce multifunctional responses

ETQKCEIFNVKPTCL [Ap8-11]
IFN-γ ELISpot activity of individual 15 mer peptide ([1]; Volunteer 001): 48 SFC/10^6 | IFN-γ ELISpot activity of individual 15 mer peptide ([1]; Volunteer 005): 218 SFC/10^6 | IFN-γ ELISpot activity of individual 15 mer peptide ([1]; Volunteer 008): 48 SFC/10^6

FKADRYKSHGKGYNW [Ap8-6]
IFN-γ ELISpot activity of individual 15 mer peptide ([1]; Volunteer 012): 143 SFC/10^6

HPKEYEYPL (listed as Plasmodium falciparum) [Ep # 9]
CD8^+ T cell IFN-γ response in ICS [2]: equal or more CD8^+ IFN-γ than the parent peptide pool

HVNEFPAIDLFECNK [Ap7-4]
IFN-γ ELISpot activity of individual 15 mer peptide ([1]; Volunteer 001): 96 SFC/10^6

INEHREHPKEYEYPL [Ap1-11]
% effect on ELISpot activity, CD4 dep ([3]; V002): −18% | % effect on ELISpot activity, CD8 dep ([3]; V002): −94% | % effect on ELISpot activity, CD4 dep ([3]; V005): −37% | % effect on ELISpot activity, CD8 dep ([3]; V005): −100% | IFN-γ ELISpot activity of individual 15 mer peptide ([1]; Volunteer 002): 180 SFC/10^6 | IFN-γ ELISpot activity of individual 15 mer peptide ([1]; Volunteer 005): 322 SFC/10^6

KEYEYPLHQEHTYQQ [Ap1-13]
% effect on ELISpot activity, CD4 dep ([3]; V001): +133% | % effect on ELISpot activity, CD8 dep ([3]; V001): −76% | IFN-γ ELISpot activity of individual 15 mer peptide ([1]; Volunteer 001): 42 SFC/10^6

LLSAFEFTYMINFGR [Ap1-3]
% effect on ELISpot activity, CD4 dep ([3]; V001): −32% | % effect on ELISpot activity, CD8 dep ([3]; V001): −56% | IFN-γ ELISpot activity of individual 15 mer peptide ([1]; Volunteer 001): 48 SFC/10^6

LMSPMTLDEMRHFYK [Ap4-9]
% effect on ELISpot activity, CD4 dep ([3]; V005): −32% | % effect on ELISpot activity, CD8 dep ([3]; V005): −100% | IFN-γ ELISpot activity of individual 15 mer peptide ([1]; Volunteer 002): 189 SFC/10^6 | IFN-γ ELISpot activity of individual 15 mer peptide ([1]; Volunteer 005): 395 SFC/10^6

MTLDEMRHFYKDNKY [Ap4-10]
IFN-γ ELISpot activity of individual 15 mer peptide ([1]; Volunteer 002): 82 SFC/10^6 | IFN-γ ELISpot activity of individual 15 mer peptide ([1]; Volunteer 005): 118 SFC/10^6

NEFPAIDLF (listed as Plasmodium falciparum) [Ep # 2]
CD8^+ T cell IFN-γ response in ICS [2]: equal or more CD8^+ IFN-γ than the parent peptide pool

NEVVVKEEY [Ep # 1, NEVVVKEEY]
CD8^+ T cell IFN-γ response in ICS [2]: equal or more CD8^+ IFN-γ than the parent peptide pool

NQYLKDGGFAFPPTE [Ap4-5]
IFN-γ ELISpot activity of individual 15 mer peptide ([1]; Volunteer 005): 50 SFC/10^6 | ELISpot activity of 15 mer peptide [1]: 50 sfc/m

NSTCRFFVCK (listed as Plasmodium falciparum)
T-cell response (IFN-γ SFC) [4]: significant T-cell response

QNSDVYRPINEHREH [Ap1-9]
IFN-γ ELISpot activity of individual 15 mer peptide ([1]; Volunteer 001): 48 SFC/10^6

REHPKEYEYPLHQEH [Ap1-12]
IFN-γ ELISpot activity of individual 15 mer peptide ([1]; Volunteer 002): 66 SFC/10^6 | IFN-γ ELISpot activity of individual 15 mer peptide ([1]; Volunteer 005): 118 SFC/10^6

RYKSHGKGY [Ep # 14, RYKSHGKGY]
CD8^+ T cell IFN-γ response in ICS [2]: very weak CD8^+ IFN-γ responses | multifunctional CD8^+ T cell responses in ICS [2]: did not appear to induce multifunctional responses | ELISpot 7m, predicted 8-10 mer epitope ([1]; Vol 012, PBMC 7 months): 11 | recognition of minimal epitope in ELISpot ([1]; v012, criteria for positive 40 SFC/million): negative

TLDEMRHFY [Ep # 8]
CD8^+ T cell IFN-γ response in ICS [2]: equal or more CD8^+ IFN-γ than the parent peptide pool | ELISpot 4m, predicted 8-10 mer epitope ([1]; Vol 002, PBMC 4 months): 51

TSNNEVVVKEEYKDE [Ap10-13]
% effect on ELISpot activity, CD4 dep ([3]; V001): +148% | % effect on ELISpot activity, CD8 dep ([3]; V001): −88% | % effect on ELISpot activity, CD4 dep ([3]; V012): +14% | % effect on ELISpot activity, CD8 dep ([3]; V012): −100% | IFN-γ ELISpot activity of individual 15 mer peptide ([1]; Volunteer 001): 250 SFC/10^6 | IFN-γ ELISpot activity of individual 15 mer peptide ([1]; Volunteer 012): 233 SFC/10^6
